Patent US20100292193A1, “RADIOPROTECTIVE DRUGS” (THE REGENTS OF THE UNIVERSITY OF CALIFORNIA, priority 2009, published 2010)

What was measured:
[1] = system: TiL-1 cells; experiment: ROS scavenging: intracellular ROS after irradiation (DCF-DA); assay type: cell-based; settings: compound added 3 h before irradiation; DCF-DA 25 μM 1 h before; measured immediately after irradiation
Description: FIGS. 5A and 5B show the effect of CPA on ROS scavenging.
The effect of CPA on ROS scavenging was also evaluated. […] The intracellular ROS was measured immediately after irradiation in TiL-1 cells using 2′,7′-dichlorofluorescein diacetate (DCF-DA, Invitrogen). The compound and DCF-DA probe at 25 μM was added 3 h and 1 h before irradiation, respectively.

[2] = system: mice; experiment: Animal survival against a lethal dose total body irradiation; assay type: in vivo
Description: (§1) FIGS. 4A and 4B show the effect of CPA on animal survival against a lethal dose total body irradiation (TBI). FIG. 4A: Two oral administrations of CPA at 24 h and 1 h prior to irradiation at 8 Gy. FIG. 4B: CPA at 6 mg/kg or vehicle control was administered twice prior to irradiation as (FIG. 4A) along with un-irradiated control mice for Granulocyte-macrophage colony forming units.
The effect of CPA on animal survival against a lethal dose total body irradiation was determined. […] This effect was most prominent with CPA treatment at 6 mg/kg showing 89% survival while only 17% of controls survived.

[3] = system: bone marrow cells; experiment: Granulocyte-macrophage colony forming units from bone marrow after total body irradiation; assay type: in vivo, mice; settings: 6 mg/kg twice prior to irradiation; bone marrow collected 3 d after TBI, counted 8-9 d after plating; p<0.05 IR vs IR+CPA
Description: as §1
CPA at 6 mg/kg or vehicle control was administered twice prior to irradiation as described above along with un-irradiated control mice for Granulocyte-macrophage colony forming units.

[4] = system: TiL1 cells; experiment: Cell viability assay with irradiated TiL1 cells (ATPlite); assay type: cell-based; settings: 2Gy, ATPlite 24 hours after irradiation, normalized to vehicle control
Description: FIGS. 3A and 3B show radiation dose-responses of irradiated TiL1 cells treated with cyclopiazonic acid (CPA). Cell viability assay with TiL1 cells was measured using ATPlite reagent 24 h after irradiation with 2Gy. CPA was added to the cells 3 h before IR for protection (FIG. 3A) or 1 h after IR for mitigation (FIG. 3B) activities.
Dose-responses of irradiated cells treated with cyclopiazonic acid (CPA) were determined. A cell viability assay with TiL1 cells was measured using ATPlite reagent 24 hours after irradiation with 2Gy. CPA was added to the cells 3 h before irradiation for protection (FIG. 3A), or 1 hour after irradiation mitigation (FIG. 3B) activities. The percent cell viability plotted was normalized to vehicle control value. As shown in FIGS. 3A and 3B CPA both protects and mitigates TiL1 cell from radiation damage.

Compound | reduction of irradiation induced reactive oxygen species [1] | survival ([2]; 6 mg/kg oral, 24 h and 1 h prior to irradiation at 8 Gy, 17% of controls survived) [%] | protection from radiation-induced death ([2]; two oral administrations at 24 h and 1 h prior to irradiation at 8 Gy) | Gm-CFU, protection of the immunohematopoietic system [3] | percent cell viability, mitigation activity ([4]; CPA added 1 hour after irradiation) | percent cell viability, protection activity ([4]; CPA added 3 h before irradiation)
CC(C)(C)c1cc(O)c(C(C)(C)C)cc1O [di-tBHQ, 2,5-ditertbutylhydroquinone, reference compound] | did in dose-responsive manner |  |  |  |  | 
cyclopiazonic acid [CPA] | did not reduce | 89 | protected mice from radiation-induced death | protects the immunohematopoietic system | mitigates | protects
